Measurements from patent US7582655B2, “Antineoplastic compounds” (University of Saskatchewan, priority 2005, dated 2009).
Read-outs that look alike come from different tables or passages of the source.

Legend:
[1] = system: HGF, HPC and HPLF cells versus HSC-2, HSC-4 and HL-60 neoplasms; experiment: Selectivity index, normal versus malignant cells; type: cell-based, human; conditions: average CC50 of HGF, HPLF divided by average CC50 of HSC-2, HSC-4, HL-60
Experimental: (§1) In addition, the compounds were evaluated against human squamous cell carcinomas (HSC-2 and HSC-4) and human promyelocytic leukemia neoplasms (HL-60) and compared with normal cells, i.e. human gingival fibroblasts (HGF), human pulp cells (HPC) and human periodontal ligament fibroblasts (HPLF).
(§2) MTT stands for 3-(4,5-dimethylthiazol-2-yl)-2,5-diphenyltetrazolium bromide). The cells were incubated with varying concentrations of the compounds along with untreated cells for 24 h and the absorbance at 540 nm measured. In the case of the HL-60 assay, the trypan blue exclusion method was followed and cell viability was determined using a haemocytometer. The CC50 values were obtained from dose-response curves (Sakagami, H.; Satoh, K.; Ohata, H.; Takahashi, H.; Yoshida, H.; Iida, M.; Kuribayashi, N.; Sakagami, T.; Momose, K.; Takeda, M. Anticancer Res. 1996, 16, 2635-2644). The general methods used in culturing the cells employed in these cytotoxicity experiments have been described previously (Kawase, M.; Sakagami, H.; Motohashi, N.; Hauer, H.; Chatterjee, S. S.; Spengler, G.; Vigyikanne, A. V.; Molnár, A.; Molnár, J. In Vivo 2005, 19, 705-712; and Takeuchi, R.; Hoshijima, H.; Onuki, N.; Nagasaka, H.; Chowdhury, S. A.; Kawase, M.; Sakagami, H. Anticancer Res. 2005, 25, 4037-4042). In brief, the malignant cells were obtained from Professor Nagumo, Showa University, Japan. The HGF, HPC and HPLF cells were prepared from human periodontal tissue after obtaining informed consent according to the guidelines of Meikai University Ethics Committee, Japan (No. 0206). Since normal cells have a short lifespan, cells at the 3-7 population doubling time were used. With the exception of the HL-60 neoplasm, the cells were cultured in DMEM containing heat-inactivated FBS (10%) at 37° C. in a humidified carbon dioxide atmosphere and subcultured by trypsinization. The HL-60 cells were cultured in a similar fashion except that RPMI 1640 media was employed.

[2] = system: human squamous cell carcinomas HSC-2; experiment: Cytotoxicity CC50, MTT assay, HSC-2
Experimental: as §1, §2

[3] = system: murine L-5178 lymphoma cells transfected with the human MDR1 gene; experiment: MDR reversal, rhodamine 123 fluorescence activity ratio; conditions: FAR >1 indicates MDR reversal; for FAR value 4 μg/ml: compound 4 μg/ml; for FAR value 40 μg/ml: compound 40 μg/ml
Experimental: A solution of the test compound (2 mg/ml, 10 μl) in dimethylsulfoxide was added to aliquots of the cell suspension and incubated at room temperature for 10 minutes. […] The cells were washed twice and resuspended in PBS (pH 7.4) after which the fluorescence was measured using a Beckton Dickinson FACScan instrument. The fluorescence of the cells was measured in treated MDR cells (F1), untreated MDR cells (F2), treated parental cells (F3) […] were obtained from the following equation, viz (F1/F2)/(F3/F4).

[4] = system: human promyelocytic leukemia HL-60; experiment: Cytotoxicity CC50, trypan blue exclusion, HL-60
Experimental: as §1, §2

[5] = system: human squamous cell carcinomas HSC-4; experiment: Cytotoxicity CC50, MTT assay, HSC-4
Experimental: as §1, §2

[6] = system: HSC-2, HSC-4 and HL-60 malignant cells; experiment: Average CC50 for malignant cells
Experimental: as §1, §2

SW 620 = experiment: Human tumour cell line panel, colon cancer SW 620; type: cell-based; conditions: read-out: Colon cancer cells, IC50(μM) SW 620
Experimental: (§3) In addition, both 5-fluorouracil and melphalan were evaluated towards 57 cell lines. […] MG MID is the average of the potencies of the compound to approximately 50 neoplastic cell lines.

HCC 2998 = experiment: Human tumour cell line panel, colon cancer HCC 2998; type: cell-based; conditions: read-out: Colon cancer cells, IC50(μM) HCC 2998
Experimental: as §3

COLO 205 = experiment: Human tumour cell line panel, colon cancer COLO 205; type: cell-based; conditions: read-out: Colon cancer cells, IC50(μM) COLO 205
Experimental: as §3

HL 60 = experiment: Human tumour cell line panel, leukemic HL 60; type: cell-based; conditions: read-out: Leukemic cells, IC50(μM) HL 60
Experimental: as §3

human tumour cell lines = experiment: Panel of human tumour cell lines, all cell lines (mean graph midpoint); type: cell-based; conditions: for IC50: mean graph midpoint, average of 49 (38-59) human tumour cell lines, 48 h incubation, read-out: All cell lines IC50
Experimental: A number of compounds of the invention were further assessed against numerous human malignant cell lines. An average of 49 cell lines from nine different neoplastic diseases, namely leukemia, melanoma, non-small cell lung, colon, central nervous system, ovarian, renal, prostate, and breast cancers were employed.
as §3

[7] = system: human gingival fibroblasts (HGF); experiment: in vitro
Experimental: as §1, §2

HCT 15 = experiment: Human tumour cell line panel, colon cancer HCT 15; type: cell-based; conditions: read-out: Colon cancer cells, IC50(μM) HCT 15
Experimental: as §3

[8] = system: human periodontal ligament fibroblasts (HPLF); experiment: in vitro
Experimental: as §1, §2

human pulp cells (HPC) = experiment: in vitro
Experimental: as §1, §2

HCT 116 = experiment: Human tumour cell line panel, colon cancer HCT 116; type: cell-based; conditions: read-out: Colon cancer cells, IC50(μM) HCT 116
Experimental: as §3

K 562 = experiment: Human tumour cell line panel, leukemic K 562; type: cell-based; conditions: read-out: Leukemic cells, IC50(μM) K 562
Experimental: as §3

RPMI 8226 = experiment: Human tumour cell line panel, leukemic RPMI 8226; type: cell-based; conditions: read-out: Leukemic cells, IC50(μM) RPMI 8226
Experimental: as §3

KM 12 = experiment: Human tumour cell line panel, colon cancer KM 12; type: cell-based; conditions: read-out: Colon cancer cells, IC50(μM) KM 12
Experimental: as §3

SR = experiment: Human tumour cell line panel, leukemic SR; type: cell-based; conditions: 48 h, read-out: Leukemic cells, IC50(μM) SR
Experimental: as §3

[9] = system: synthetic DNA, poly(d(AT)); conditions: cited from earlier work
[10] = system: murine lymphocytic leukemia P388/MRI cell line; conditions: cited from earlier work
mice = conditions: five consecutive daily doses of 240 mg/kg; cited from earlier work
in vitro [11] = conditions: human
Experimental: as §1, §2

in vitro [12] = conditions: human; remark: listed apart in the source
Experimental: as §1, §2

in vitro [13] = conditions: human; remark: listed apart in the source
Experimental: as §1, §2

[14] = Homo sapiens, HSC-2, 24 h, read-out: CC50(μM) HSC-2
[15] = Homo sapiens, HL-60, 24 h, read-out: CC50(μM) HL-60
[16] = Homo sapiens, HSC-4, 24 h, read-out: CC50(μM) HSC-4

With COc1ccc(C(=O)N2CC(=Cc3ccccc3)C(=O)C(=Cc3ccccc3)C2)cc1 [Compound 2b, 1-(4-Methoxybenzoyl)-3,5-bis(phenylmethylene)-4-piperidone] the melting point was 177 to 178 °C.

With CCN(CC)CCOc1ccc(C(=O)O)cc1.Cl the melting point was 170 to 172 °C.

For CCN(CC)CCOc1ccc(C(=O)N2CC(=Cc3ccc([N+](=O)[O-])cc3)C(=O)C(=Cc3ccc([N+](=O)[O-])cc3)C2)cc1.Cl [Compound 4c, 1-[4-(2-Diethylaminoethoxy)phenylcarbonyl]-3,5-bis(4-nitrophenylmethylene)-4-piperidone hydrochloride], the “SI (selectivity index)” value [1] was 6.6, the CC50 [2, 14] was 0.98 µM and the “FAR value 4 μg/ml” value [3] was 77.5. The “FAR value 40 μg/ml” value [3] was 14.1, the CC50 [4, 15] was 0.26 µM and the CC50 [5, 16] was 1.1 µM.

In the case of CCN(CC)CCOc1ccc(C(=O)N2CC(=Cc3ccc(C)cc3)C(=O)C(=Cc3ccc(C)cc3)C2)cc1.Cl [Compound 4d, 1-[4-(2-Diethylaminoethoxy)phenylcarbonyl]-3,5-bis(4-methylphenylmethylene)-4-piperidone hydrochloride], the “SI (selectivity index)” value [1] is reported as 3.3, the CC50 [2, 14] is reported as 2.2 µM and the “FAR value 4 μg/ml” value [3] is reported as 106. For the same compound, the “FAR value 40 μg/ml” value [3] was 66.6, the CC50 [4, 15] was 0.79 µM and the CC50 [5, 16] was 2.3 µM.

In the case of O=C1C(=Cc2ccccc2)CNCC1=Cc1ccccc1 [Compound 1a], the “CC50(μM) ave” value [6] is reported as 2.7 µM, the IC50 (SW 620; 48 h) is reported as 0.575 µM and the CC50 [2] is reported as 2.2 µM. The IC50 (HCC 2998; 48 h) was 2 µM, the IC50 (COLO 205; 48 h) was 1.55 µM and the IC50 (HL 60; 48 h) was 0.363 µM. It also gave an IC50 (human tumour cell lines) of 1.62 µM, a CC50 [7] of 20 µM and an IC50 (HCT 15; 48 h) of 0.631 µM. The CC50 [8] was 24 µM, the CC50 (human pulp cells (HPC)) was 38 µM and the “FAR value 4 μg/ml” value [3] was 1.58. The “FAR value 40 μg/ml” value [3] was 2.00, the CC50 [4] was 1.5 µM and the IC50 (HCT 116; 48 h) was 0.182 µM. It also gave an IC50 (K 562; 48 h) of 0.49 µM, an IC50 (RPMI 8226; 48 h) of 0.275 µM and an IC50 (KM 12; 48 h) of 0.794 µM. For the same compound, the CC50 [5] was 4.4 µM and the IC50 (SR) was 0.209 µM.

With O=C1C(=Cc2ccccc2)CN(C(=O)c2ccccc2)CC1=Cc1ccccc1 [Compound 2a, 1-Benzoyl-3,5-bis(phenylmethylene)-4-piperidone] the melting point was 165 to 166 °C.

For O=C1C(=Cc2ccccc2)CNCC1=Cc1ccccc1 [Compound B1], the “Binding to poly(d(AT))” value [9] is listed as “does bind”, the Cytotoxic activity [10] is listed as “possesses cytotoxic activity” and the Fatalities in mice (mice) is listed as “did not induce fatalities”.

For Cl.O=C1C(=Cc2ccc(Cl)cc2)CN(C(=O)c2ccc(OCCN3CCCCC3)cc2)CC1=Cc1ccc(Cl)cc1 [Compound 5b, 3,5-bis(4-Chlorophenylmethylene)-1-[4-{2-(1-piperidinyl)ethoxy}phenylcarbonyl]-4-piperidone hydrochloride], the “SI (selectivity index)” value [1] was over 5.2, the IC50 (SW 620; Homo sapiens, SW-620, 48 h) was 3.55 µM and the CC50 [2, 14] was 110 µM. For the same compound, the IC50 (HCC 2998; Homo sapiens, HCC 2998, 48 h) was 1.58 µM, the IC50 (COLO 205; Homo sapiens, COLO 205, 48 h) was 15.8 µM and the IC50 (HL 60; Homo sapiens, HL-60, 48 h) was 20.4 µM. The IC50 (human tumour cell lines) was over 11.5 µM, the “S.I. (selectivity index)” value (human tumour cell lines; ratio of the IC50 figures for the least and most sensitive cell lines) was over 66.1 and the CC50 at 24 h (in vitro [11]) was over 400 µM. The IC50 (HCT 15; Homo sapiens, HCT-15, 48 h) was 49 µM, the CC50 at 24 h (in vitro [12]) was 340 µM and the CC50 at 24 h (in vitro [13]) was over 400 µM. For the same compound, the “FAR value 4 μg/ml” value [3] was 157, the “FAR value 40 μg/ml” value [3] was 133 and the CC50 [4, 15] was 63 µM. It also gave an IC50 (HCT 116; Homo sapiens, HCT-116, 48 h) of 47.9 µM, an IC50 (K 562; Homo sapiens, K562, 48 h) of 4.37 µM and an IC50 (RPMI 8226; Homo sapiens, RPMI-8226, 48 h) of 0.759 µM. It also gave an IC50 (KM 12; Homo sapiens, KM12, 48 h) of 19.1 µM, a CC50 [5, 16] of 48 µM and an IC50 (SR; Homo sapiens, SR) of 2.29 µM.

With CC[N+](C)(CC)CCOc1ccc(C(=O)N2CC(=Cc3ccccc3)C(=O)C(=Cc3ccccc3)C2)cc1.[I-] [Compound 7a, 1-[4-(2-Diethylaminoethoxy)phenylcarbonyl]-3,5-bis(phenylmethylene)-4-piperidone methoiodide] the “CC50(μM) ave” value [6] was 98 µM, the IC50 (SW 620; 48 h) was 30.2 µM and the CC50 [2] was 130 µM. It also gave an IC50 (HCC 2998; 48 h) of 28.2 µM, an IC50 (COLO 205; 48 h) of 20.4 µM and an IC50 (HL 60; 48 h) of over 50.1 µM. The IC50 (human tumour cell lines) was over 41.7 µM, the CC50 [7] was 160 µM and the IC50 (HCT 15; 48 h) was over 50.1 µM. The CC50 [8] was 79 µM, the CC50 (human pulp cells (HPC)) was 170 µM and the “FAR value 4 μg/ml” value [3] was 1.37. For the same compound, the “FAR value 40 μg/ml” value [3] was 1.05, the CC50 [4] was 82 µM and the IC50 (HCT 116; 48 h) was over 50.1 µM. It also gave an IC50 (K 562; 48 h) of 43.7 µM, an IC50 (RPMI 8226; 48 h) of 17.4 µM and an IC50 (KM 12; 48 h) of 43.7 µM. The CC50 [5] was 82 µM and the IC50 (SR) was 38 µM.

In the case of Cc1ccc(C=C2CNCC(=Cc3ccc(C)cc3)C2=O)cc1 [Compound 1d, 3,5-bis(4-Methylphenylmethylene)-4-piperidone], the “SI (selectivity index)” value [1] is reported as 29, the CC50 [2, 14] is reported as 3.9 µM and the “FAR value 4 μg/ml” value [3] is reported as 3.26. For the same compound, the “FAR value 40 μg/ml” value [3] was 4.03, the CC50 [4, 15] was 4.5 µM and the CC50 [5, 16] was 9.3 µM.

For CCN(CC)CCOc1ccc(C(=O)N2CC(=Cc3ccc(Cl)cc3)C(=O)C(=Cc3ccc(Cl)cc3)C2)cc1.Cl [Compound 4b, 3,5-bis(4-Chlorophenylmethylene)-1-[4-(2-diethylaminoethoxy)phenylcarbonyl]-4-piperidone hydrochloride], the “SI (selectivity index)” value [1] was over 4.3, the CC50 [2, 14] was 160 µM and the CC50 at 24 h (in vitro [11]) was 230 µM. The CC50 at 24 h (in vitro [12]) was over 400 µM, the CC50 at 24 h (in vitro [13]) was over 400 µM and the “FAR value 4 μg/ml” value [3] was 118. For the same compound, the “FAR value 40 μg/ml” value [3] was 99.7, the CC50 [4, 15] was 46 µM and the CC50 [5, 16] was 34 µM.
